# Measurements as given in a melting point compilation (Tetko et al.; mined from patent text by program, amines drawn as free bases though some values may be those of a salt).
row,SMILES,melting point
1,CCN(CC)CCN1C(=O)c2cc(N)cc3cc([N+](=O)[O-])cc(c23)C1=O,174 °C
2,N=C(N)NCc1cc(CCC(=O)O)no1,> 297 °C
3,c1ccc(NC[C@@H]2N[C@H]2c2ccccc2)cc1 (relative stereo),96 to 97 °C
4,Nc1ccc(C(=O)c2cccnc2)cc1[N+](=O)[O-],229 to 230 °C
5,O=C1C(=O)c2ccc(Br)cc2C2=C1SCC1(CCN(CC(O)Cc3ccccc3)CC1)O2 (configuration not stated),82 to 83 °C
6,O=C1CCC(=O)N1CC(O)COc1ccccc1 (configuration not stated),130 °C
7,CC(C)CCCC(C)C1CCC2C3CC=C4CC(NC(=O)CCNC(=O)CCCCCNc5ccc([N+](=O)[O-])cc5[N+](=O)[O-])CCC4(C)C3CCC12C (configuration not stated),197 to 198 °C
8,COC(=O)c1cc(C)sc1NC(=O)Cc1ccccc1,107 to 109 °C
9,COC(=O)CC1Sc2ccc([N+](=O)[O-])cc2CN(CCc2ccccc2)C1=O (configuration not stated),205 to 208 °C
10,N#Cc1cn(-c2cccnc2)nc1-c1ccc([N+](=O)[O-])o1,206 to 207 °C
11,C#CCn1c(=O)sc2cc(F)c(-n3c(OC)nc(C(F)(F)F)cc3=O)cc21,191 to 192 °C
12,COc1cc(CCCn2cncn2)ccc1O,97 to 98 °C
13,CCOC(=O)C(C)(NC(=O)Cc1ccc2ccccc2c1)C(=O)OCC,148 to 150 °C
14,NC(=O)CSC(=O)c1ccco1,126 to 128 °C
15,COC(=O)[C@@H](N=[N+]=[N-])[C@@H](O)c1ccccc1,40 to 41 °C
16,NC(=O)c1ccc2ccn(C3CCN(CCc4ccc(F)cc4)CC3)c2c1,238 to 240 °C
17,Cn1nc(-c2cccc(N3Cc4cc(C(C)(C)C)ccc4C3=O)c2CO)cc(Nc2ccccn2)c1=O,236 to 237 °C
18,COCCOc1ccc(/C=C/C(=O)O)c(OC2CCCCC2)c1,102 to 114 °C
19,CCN(CC)CCSC1=C(C#N)C(c2ccccn2)(c2ccccn2)C(=O)N1,135 to 136 °C
20,CC(C)CC1(C(CCN2C(=O)c3cccc(F)c3C2=O)C(=O)NO)CCN(CCc2ccccc2)C1=O (configuration not stated),145 to 146 °C
21,COc1cc2c(cc1OC)CC(NC(=O)N(C)O)CC2 (configuration not stated),150 to 151 °C
22,S=C=Nc1ccc2oc(-c3ccco3)nc2c1,135 to 137 °C
23,COCO[C@@H](C(=O)OC)[C@@H](Sc1ccccc1[N+](=O)[O-])c1ccc(OC)cc1,155 to 158 °C
24,Cn1cc(C2OC(=O)NC2=O)c2ccccc21 (configuration not stated),152 to 154 °C
25,Nc1nc(O)c2c(n1)NCC(CCC1CCC(N[C@@H](CCC(=O)O)C(=O)O)CC1)C2 (some centres not stated),210 to 225 °C

row,SMILES,melting point
1,Cc1ccc(-c2cnc([C@H]3CC[C@H](C#N)CC3)nc2)cc1,172 °C
2,COCOCc1oc2c(OC)cccc2c1CCSC(c1ccccc1)c1ccccc1,110 °C
3,CC(=O)NC(=O)C(SC(C)=O)c1ccccc1 (configuration not stated),96 °C
4,O=C1Cc2ccccc2Oc2ccc(CC(O)(P(=O)(O)O)P(=O)(O)O)cc21,228 °C
5,CNCC(=O)N1N=C(c2ccc(N)cc2)c2cc3c(cc2CC1C)OCO3 (configuration not stated),198 to 200 °C
6,CN(C)CCCn1cc(Br)c2c3c(c(-c4ccccc4Cl)cc21)C(=O)NC3=O,160 to 162 °C
7,Cc1c(NC(=O)CCCC(=O)c2ccc(F)cc2)ccc2cc(CN3CCCC3)cnc12,170 to 171 °C
8,CC(C)(C)c1cc(C(C)(C)c2cc(C(C)(C)C)c(O)c(C(C)(C)C)c2)cc(C(C)(C)C)c1O,148 to 154 °C
9,CNc1cc(F)ccc1C(=O)CS(=O)(=O)N(C)C,120 to 124 °C
10,CC(C(=O)O)c1ccc2c(c1)C(=O)CC(C(C)(C)C)O2 (configuration not stated),117 to 118 °C
11,CN(C)S(=O)(=O)c1cc2c(c(C(=O)O)c1)OC(C)(C)C2,211 to 212 °C
12,CON=C1C=CC=CC1CC(=O)OC (configuration not stated),96 to 97 °C
13,COC(=O)c1ccc(OC)c(C(F)(F)F)c1,77 to 79 °C
14,CC(C)c1ccc(N(Cc2ccc(N(C)C)cc2)C(=O)C2CCOc3ccc(F)cc32)cc1 (configuration not stated),95 to 98 °C
15,N#Cc1ccc(CCl)cn1,45 to 47 °C
16,CN1CCC(C(=O)OC2c3ccccc3C(=O)N2c2ccc3ccc(Cl)nc3n2)CC1 (configuration not stated),136 °C
17,Nc1sc(-c2ccco2)c(CN(C2CCCCC2)C2CCCCC2)c1C(=O)c1ccc(Cl)cc1,158 to 160 °C
18,COC(=O)c1cccc2c1Oc1c(cccc1C(=O)OC)N2,145 to 146 °C
19,CCOc1cccc(C2C(C(=O)OC)=C(C)NC(C)=C2C(=O)OC)c1OCC(=O)NCCO[N+](=O)[O-],159 to 160 °C
20,Cc1nnc(NC(=O)C2c3ccccc3Oc3ccccc32)o1,261 to 263 °C
21,Cc1cc(-c2cc(O)c(SCCc3ccccc3)c(=O)o2)ccc1OCc1ccccn1,75 to 77 °C
22,O=C(Cn1c(-c2ccc(Cl)cc2)nc2cccnc21)Nc1ccccn1,190 to 191 °C
23,CC=CN1CC([N+](=O)[O-])=CN(C(C)c2ccc(Cl)nc2)C1(C)N (configuration not stated),148 to 150 °C
24,O=S(=O)(Nc1ccc2c(OCc3ccc4ccccc4c3)cccc2c1)C(F)(F)F,140 to 142 °C
25,COc1cc(OC)c2c(=O)cc(-c3ccc(C(F)(F)F)cc3)oc2c1C1CCN(C)C1CO (configuration not stated),114 to 115 °C

row,SMILES,melting point
1,O=S(=O)(Nc1cccnc1Nc1ccccc1)c1ccc(Cl)cc1,186 to 188 °C
2,CC(C)C(Oc1ccccc1)C(=O)NCCO[N+](=O)[O-] (configuration not stated),76 to 77 °C
3,Oc1cc(-c2ccccc2)ncn1,266 to 267 °C
4,CC(C)(C)c1cc(Oc2ccc([N+](=O)[O-])c(O)c2)ccc1Oc1ccc([N+](=O)[O-])c(O)c1,156 to 158 °C
5,COC(=O)C(Cc1ccccc1)Oc1c(Br)cc(-c2ccc(-c3nc(-c4ccc(C(F)(F)F)cc4)oc3C)cc2)cc1Br (configuration not stated),70 to 72 °C
6,CCn1nc(-c2ccccc2)c(C(C)=O)c(Nc2ccc(CN)cc2)c1=O,139 °C
7,CCn1cc(C(=O)O)c(=O)c2cc(F)c(N3CCN(C)C(c4ccc(C)s4)C3)cc21 (configuration not stated),224 °C
8,CCc1nn(C2CCCC2)c2c1CCn1c(-c3cccs3)nnc1-2,126 °C
9,Cc1ccc(Oc2ccc(Cl)cn2)c(Oc2ccc(Cl)cn2)c1,87 to 90 °C
10,O=C(Nc1ccc(Br)cc1)C(=O)N1CCC(Cc2ccccc2)CC1,131 to 132 °C
11,COC(=O)c1cc(C(=O)c2ccccc2)ccc1OC,88 °C
12,O=C1CC(c2ccccc2)c2cc(O)ccc2O1 (configuration not stated),138 °C
13,O=C(CCCC=CCC1C(O)CC(O)C1C=CC(O)CCc1ccccc1)ON1C(=O)c2ccccc2C1=O (configuration not stated),83.2 to 84.5 °C
14,N=C(NS(=O)(=O)C=Cc1ccc(Cl)c(Cl)c1)c1ccccc1,144 to 146 °C
15,COC1=C(OC)C(=O)C2=C(CCC(CCOc3ccc(CO)cc3)CC2)C1=O,57 to 59 °C
16,COc1ccc(C2=NN(c3ccc(OCc4ccccc4)cc3)C(=O)[C@@H]3CC=CC[C@H]23)cc1OC,104 to 105 °C
17,COC(=O)c1c(-c2cc3ccccc3o2)ccc2ccccc12,111 to 112 °C
18,O=C1CCCCC1C(C[N+](=O)[O-])c1ccc(Cl)c(Cl)c1 (racemic),109 to 110 °C
19,CC(C)(C)c1cc(CCc2ccccc2NC(=O)NCCc2ccc([N+](=O)[O-])cc2)cc(C(C)(C)C)c1O,134 to 136 °C
20,N#Cc1ccc(-c2ccc(-c3ccc(C#N)cn3)s2)cc1,316 to 318 °C
21,Cc1cn(C)c(CO)n1,125 to 126 °C
22,FC(F)(F)c1ccc(-c2nc(Br)cc(Br)n2)cc1,87 °C
23,O[C@@H]1Cc2ccccc2C[C@H]1N1CCN(c2ccccc2)CC1 (relative stereo),152 to 154 °C
24,O=C1C(=O)c2ccccc2C2=C1SCC1(CCN(C(=O)c3nc4ccccc4[nH]3)CC1)O2,266 to 268 °C
25,CCCc1c(CSc2nnc(SCc3ccc(OCC(=O)O)cc3)s2)ccc(C(C)=O)c1O,131 to 134 °C

row,SMILES,melting point
1,O=S(=O)(CCCCl)NC1CC1,48 to 49.5 °C
2,CC(=O)Nc1cc(F)ccc1C(=O)NCCN1CCC(O)(c2ccc(Cl)cc2)CC1,175 °C
3,CCCCCCS(=O)(=O)c1ccc(S(=O)(=O)CCCCCC)nc1,135 to 136 °C
4,Cc1cc(C)nc(Oc2ccnc3cc(Cl)ccc23)n1,104 to 105 °C
5,CCCCCCCCCCCCCCCCC[C@@H]1OC[C@@H](COCCCCCCCCOS(=O)(=O)c2ccc(C)cc2)O1 (relative stereo),45.9 to 50.8 °C
6,CN(CCCNC(=O)c1cccc2nc3ccc(Cl)cc3nc12)CCCNC(=O)c1cccc2nc3ccc(Cl)cc3nc12,210 to 212 °C
7,CC(C)(C)OC(=O)NCc1ccc(N2CC(C(=O)O)OC2=O)cc1 (configuration not stated),166 °C
8,O=C(Nc1ccc2[nH]c(=O)oc2c1)C(=O)N1CCC(Oc2ccc(Cl)cc2)CC1,242 to 244 °C
9,CCOc1ccc2c(c1)n(C1CCCCC1)c(=O)n2Cc1ccc([N+](=O)[O-])cc1OC,120 °C
10,CCCOc1cc(-n2c(=O)cc(C(F)(F)F)n(C)c2=O)c(F)cc1Cl,103 to 104 °C
11,CN(c1cc(OC(F)(F)F)cc2cc(C(=O)O)[nH]c12)S(=O)(=O)c1cccs1,245 to 246 °C
12,CCOC(=O)COc1cccc2nc3c(c(N)c12)CCCC3,141 to 142 °C
13,ClCc1ccc(OCc2csc(-c3ccccc3)n2)cc1,98 to 99 °C
14,CC(C)(C)C(NC(=O)c1ccc(Cl)cc1)NC(=NC#N)Nc1cccnc1 (configuration not stated),194 to 195 °C
15,COc1ccc2cc3c(N)nn(CCN4CCOCC4)c3nc2c1,166 to 168 °C
16,Clc1cc(Oc2ccc3[nH]ccc3c2)ncn1,137 to 138 °C
17,COC(=O)c1ccccc1OCCOc1cccc2oc(-c3ccccc3)cc(=O)c12,160 to 161 °C
18,COc1cc2cnc(C(=O)O)cc2cc1OC,228 °C
19,O=[N+]([O-])c1ccc(CCN2CCN(C3CCc4ccccc4C3O)CC2)cc1 (configuration not stated),155 to 159 °C
20,CCOC(=O)Cc1c(-c2ccccc2)c2cc3c(cc2oc1=O)C(=O)OC3,222 to 223 °C
21,CCOC(=O)CN(CP(=O)(ONNc1ccccc1)ONNc1ccccc1)C(=O)C(F)(F)F,113 to 116 °C
22,Cc1cccc(NC(=O)NCC(=O)N(CC(=O)OC(C)(C)C)c2ccc3c(c2)OCO3)c1,142 °C
